The target of experiment [1] is T1, glutathione-S-transferase (GST) tagged LXRbeta LBD (ligand binding domain) (Homo sapiens, UniProt P55055).
T1 construct: purchased Invitrogen pv4658
T1 sequence (P55055 222-460 limits assumed): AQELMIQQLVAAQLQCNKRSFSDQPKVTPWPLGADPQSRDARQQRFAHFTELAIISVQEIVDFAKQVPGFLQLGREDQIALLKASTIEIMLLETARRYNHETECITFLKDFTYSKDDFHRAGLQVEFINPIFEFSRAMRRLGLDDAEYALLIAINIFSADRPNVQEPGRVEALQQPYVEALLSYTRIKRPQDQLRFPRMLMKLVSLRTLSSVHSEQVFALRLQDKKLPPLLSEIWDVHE
As to the kind of experiment: LanthaScreen TR-FRET Liver X Receptor Coactivator Assay, LXR beta. In kind it is biochemical. As to conditions: for EC50: LXR beta IP, potency (Inflection Point), compound-induced co-activator recruitment, TR-FRET; for Emax: read-out: LXR beta actiivty at max dose, efficacy (% Emax) in relation to reference dual agonist T0901317. The protocol:
(§1) While running the LanthaScreen™ TR-FRET Liver X Receptor Coactivator Assay, LXR alpha-LBD or LXR beta-LBD was added to ligand test compounds followed by addition of a mixture of a fluorescein-labelled coactivator peptide and terbium-conjugated anti-GST antibody. After an incubation period at room temperature, TR-FRET (time-resolved fluorescence resonance energy transfer) was measured using a filter-based instrument capable of TR-FRET, e.g. PerkinElmer Envision.

Experiment [2] concerns the target T2, glutathione-S-transferase (GST) tagged LXRalpha LBD (ligand binding domain) (Homo sapiens, UniProt Q13133).
T2 construct: purchased Invitrogen pv4655
T2 sequence (Q13133 209-447 limits assumed): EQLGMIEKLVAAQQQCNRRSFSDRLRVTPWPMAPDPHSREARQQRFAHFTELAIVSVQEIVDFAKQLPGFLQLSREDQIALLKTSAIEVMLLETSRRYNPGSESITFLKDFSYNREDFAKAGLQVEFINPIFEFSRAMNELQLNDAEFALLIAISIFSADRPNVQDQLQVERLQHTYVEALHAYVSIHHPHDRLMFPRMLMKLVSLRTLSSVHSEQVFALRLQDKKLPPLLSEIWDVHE
As to the kind of experiment: biochemical. The protocol:
as §1

The mark [3] stands for this setting: LXR alpha IP, potency (Inflection Point), compound-induced co-activator recruitment, TR-FRET.
Where [4] appears, read: read-out: LXR alpha actiivty at max dose, efficacy (% Emax) in relation to reference dual agonist T0901317.
[5] abbreviates: potency (Inflection Point), compound-induced co-activator recruitment, TR-FRET.
Where [6] appears, read: read-out: LXR alpha actiivty at max dose.

Read-outs that look alike come from different tables or passages of the source.

Take `O=C(c1ccc(OCCCCC2CCN(C(=O)[C@](O)(c3ccccc3)C(F)(F)F)CC2)cc1Cl)N1CCC[C@H]1CO` (single isomer, unassigned) [Example 8-7, (R or S)-1-(4-(4-(3-chloro-4-((S or R)-2-(hydroxymethyl)pyrrolidine-1-carbonyl)phenoxy)butyl)piperidin-1-yl)-3,3,3-trifluoro-2-hydroxy-2-phenylpropan-1-one]: the EC50 in experiment [1] was 7 nM; in experiment [2] (setting [3]), 131 nM. For the same compound, the figures for the Emax in experiment [1] and in experiment [2] (setting [4]) were 48% and 42%, respectively.
With `CC(CCC1CCN(C(=O)[C@](O)(c2ccccc2)C(F)(F)F)CC1)COc1ccc(C(=O)N(C)C)c(Cl)c1` (single isomer, unassigned) [Example 23-1, 2-chloro-N,N-dimethyl-4-((R or S)-2-methyl-4-(1-((R or S)-3,3,3-trifluoro-2-hydroxy-2-phenylpropanoyl)piperidin-4-yl)butoxy)benzamide], the EC50 in experiment [1] is 24 nM; in experiment [2] (potency (Inflection Point), compound-induced co-activator recruitment, TR-FRET, read-out: LXR alpha IP), 436 nM. For the same compound, the Emax in experiment [1] was 74%; in experiment [2] (efficacy (% Emax) in relation to reference dual agonist T0901317, read-out: LXR alpha actiivty at max dose), 23%.
Regarding `CN(C)C(=O)c1ccc(OCC[C@H]2CC23CCN(C(=O)[C@](N)(c2ccccc2)C(F)(F)F)CC3)cc1Cl` (single isomer, unassigned) [Example 12-9, 4-(2-((R or S)-6-((R or S)-2-amino-3,3,3-trifluoro-2-phenylpropanoyl)-6-azaspiro[2.5]octan-1-yl)ethoxy)-2-chloro-N,N-dimethylbenzamide], the EC50 in experiment [1] was 50 nM. In addition, the values for the Emax in experiment [1] and in experiment [2] (setting [4]) were 65% and 0%, respectively. For the same compound, the “LXR alpha IP” value in experiment [2] (setting [5]) is recorded as “No IP”.
Turning to `CN(C(=O)c1ccc(OCCCCC2CCN(C(=O)[C@](O)(c3ccccc3)C(F)(F)F)CC2)cc1Cl)C1COC1` (single isomer, unassigned) [Example 8-13, (R or S)-2-chloro-N-methyl-N-(oxetan-3-yl)-4-(4-(1-(3,3,3-trifluoro-2-hydroxy-2-phenylpropanoyl)piperidin-4-yl)butoxy) benzamide], the EC50 in experiment [1] is 22 nM; in experiment [2] (setting [3]), 412 nM. Besides, the figures for the Emax in experiment [1] and in experiment [2] (setting [4]) were 73% and 29%, respectively.
On to `CN(C)C(=O)c1ccc(OCCCC2CCN(C(=O)c3cc(F)ccc3F)CC2)cc1Cl` [Example 3-1, 2-chloro-4-(3-(1-(2,5-difluorobenzoyl)piperidin-4-yl)propoxy)-N,N-dimethylbenzamide], for which, in experiment [1], the EC50 amounted to 501 nM and the Emax is 62%. Further, the “LXR alpha IP” value in experiment [2] is reported as “No IP”. In addition, in experiment [2] (setting [6]), the Emax is 32%.
With `CN(C)C(=O)c1ccc(OCC[C@@H]2CC23CCN(C(=O)C(O)(c2cccc4c2OC(F)(F)O4)C(F)(F)F)CC3)cc1Cl` (single isomer, unassigned) [Example 12-16, 2-chloro-4-(2-((1S or 1R)-6-(2-(2,2-difluorobenzo[d][1, 3]dioxol-4-yl)-3,3,3-trifluoro-2-hydroxypropanoyl)-6-azaspiro[2.5]octan-1-yl)ethoxy)-N,N-dimethylbenzamide], the EC50 in experiment [1] stood at 26 nM. For the same compound, the Emax in experiment [1] was 33%; in experiment [2] (setting [4]) it was 8%. In addition, the “LXR alpha IP” value in experiment [2] (setting [5]) is given as “No IP”.
Turning to `CN(C)C(=O)c1ccc(OCCC2CC23CCN(C(=O)C2(c4ccccc4Cl)CCC2)CC3)cc1Cl` (single isomer, unassigned) [Example 12-5, (R or S)-2-chloro-4-(2-(6-(1-(2-chlorophenyl)cyclobutanecarbonyl)-6-azaspiro[2.5]octan-1-yl)ethoxy)-N,N-dimethylbenzamide], the EC50 in experiment [1] is 3 nM; in experiment [2] (setting [3]) it was 91 nM. Further, the values for the Emax in experiment [1] and in experiment [2] (setting [4]) were 54% and 49%, respectively.
Taken in the same sequence, the figures for `CNC(=O)c1ccc(OC[C@@H](C)CCC2CCN(C(=O)[C@@](O)(c3cccc(OC)c3)C(F)(F)F)CC2)cc1Cl` (single isomer, unassigned) [Example 23-4, 2-chloro-N-methyl-4-((S or R)-2-methyl-4-(1-((S or trifluoro-2-hydroxy-2-(3-methoxyphenyl)propanoyl)piperidin-4-yl)butoxy)benzamide] were 60 nM, 717 nM, 53% and 9%.
With `CCc1nc(OCCCCC2CCN(C(=O)C(O)(c3ccccc3)C(F)(F)F)CC2)ccc1C(=O)N(C)C` (centres unmarked) [Example 5-2, 2-ethyl-N,N-dimethyl-6-(4-(1-(3,3,3-trifluoro-2-hydroxy-2-phenylpropanoyl)piperidin-4-yl)butoxyl)nicotinamide], in experiment [1], the EC50 is 63 nM and the Emax was found to be 77%.
In the case of `CN(C)C(=O)c1ccc(OCCCCC2CCN(C(=O)C(C)(O)c3ccccc3)CC2)cc1Cl` (single isomer, unassigned) [Example 3-10, (S or R)-2-chloro-4-(4-(1-(2-hydroxy-2-phenylpropanoyl)piperidin-4-yl)butoxy)-N,N-dimethylbenzamide], in experiment [1], the EC50 stood at 353 nM. Moreover, the results for the Emax in experiment [1] and in experiment [2] (setting [4]) were 55% and 5%, respectively. Moreover, in experiment [2] (setting [5]), the “LXR alpha IP” value is recorded as “No IP”.
In the case of `CN(C)C(=O)c1ccc(OCCC2CC23CCN(C(=O)C(C)(C)c2ccccc2)CC3)nc1Cl` (centres unmarked) [Example 15-3, 2-chloro-N,N-dimethyl-6-(2-(6-(2-methyl-2-phenylpropanoyl)-6-azaspiro[2.5]octan-1-yl)ethoxy)nicotinamide], the EC50 is 5 nM in experiment [1] and 202 nM in experiment [2] (setting [3]). The Emax worked out at 102% in experiment [1] and 67% in experiment [2] (setting [4]).
Taken in the same sequence, the figures for `CN(C)C(=O)c1ccc(OC[C@@H]2C[C@H]2C2CCN(C(=O)[C@](O)(c3ccccc3)C(F)(F)C(F)(F)F)CC2)cc1Cl` (single isomer, unassigned) [Example 32-3, 2-chloro-N,N-dimethyl-4-(((1R,2S or 1S,2R)-2-(1-((R or S)-3,3,4,4,4-pentafluoro-2-hydroxy-2-phenylbutanoyl)piperidin-4-yl)cyclopropyl)methoxy) benzamide] were 105 nM, 1380 nM, 125% and 17%.
Regarding `COc1cccc([C@](O)(C(=O)N2CCC(CC[C@H](C)COc3ccc(C(=O)N(C)C)c(Cl)c3)CC2)C(F)(F)F)c1` (single isomer, unassigned) [Example 23-2, 2-chloro-N,N-dimethyl-4-((S or R)-2-methyl-4-(1-((S or R)-3,3,3-trifluoro-2-hydroxy-2-(3-methoxyphenyl)propanoyl)piperidin-4-yl)butoxy)benzamide], the EC50 in experiment [1] was found to be 19 nM. The Emax was found to be 53% in experiment [1] and 0% in experiment [2] (setting [4]). The “LXR alpha IP” value in experiment [2] (setting [5]) was “No IP”.
On to `COc1cccc([C@](O)(C(=O)N2CCC3(CC2)C[C@@H]3CCCOc2ccc(C(=O)N(C)C)c(Cl)c2)C(F)(F)F)c1` (single isomer, unassigned) [Example 14-7, 2-chloro-N,N-dimethyl-4-(3-((S or R)-6-((S or R)-3,3,3-trifluoro-2-hydroxy-2-(3-methoxyphenyl)propanoyl)-6-azaspiro[2.5]octan-1-yl)propoxyl)benzamide], for which the EC50 in experiment [1] is 9 nM; in experiment [2] (setting [3]), 186 nM. The Emax in experiment [1] came to 100%; in experiment [2] (setting [4]), 46%.
For `CN(C)C(=O)c1ccc(OCCC[C@H]2CC23CCN(C(=O)[C@@](O)(c2ccccc2)C(F)(F)F)CC3)cc1Cl` (single isomer, unassigned) [Example 14-1, 2-chloro-N,N-dimethyl-4-(3-((S or R)-6-((S or R)-3,3,3-trifluoro-2-hydroxy-2-phenylpropanoyl)-6-azaspiro[2.5]octan-1-yl)propoxy)benzamide], the EC50 in experiment [1] worked out at 65 nM; in experiment [2] (LXR alpha IP) it was 765 nM. Further, the Emax came to 99% in experiment [1] and 9% in experiment [2] (setting [6]).
`CN(C)C(=O)c1ccc(OCCCCC2CCN(C(=O)C(O)(c3ccccc3)C(F)(F)F)CC2)nc1Cl` (single isomer, unassigned) [Example 3-17, (S or R)-2-chloro-N,N-dimethyl-6-(4-(1-(3,3,3-trifluoro-2-hydroxy-2-phenylpropanoyl)piperidin-4-yl)butoxy)nicotinamide]: the EC50 in experiment [1] worked out at 8 nM. The “LXR beta actiivty at max dose” value in experiment [1] (efficacy (% Emax) in relation to reference dual agonist T0901317) stood at 74%.
On to `CN(C)C(=O)c1ccc(OCCCCC2CCN(C(=O)C(O)(c3ccccc3)C(F)(F)F)CC2)nc1Cl` (single isomer, unassigned) [Example 3-16, (R or S)-2-chloro-N,N-dimethyl-6-(4-(1-(3,3,3-trifluoro-2-hydroxy-2-phenylpropanoyl)piperidin-4-yl)butoxy)nicotinamide], for which, in experiment [1], the EC50 is 259 nM and the Emax is 83%.

Values taken from patent US11655216B2 (priority 2016, dated 2023).
